Some test systems named below: HOP-92 NSCLC; MOLT-4 leukemia; M14 melanoma; CAKI-1 renal; HCT-15 colon; LOX IMVI melanoma; HOP-62 NSCLC; EKVX NSCLC; K-562 leukemia; OVCAR-3 ovarian.
Holding throughout (experiment): growth of human tumour cells (NCI), 48 h

Here are results for 13 compounds from PubChem BioAssay (NCI).

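Protocol summary: plate cells (96-well), add compound at 5 concentrations, incubate 48 h, interpolate endpoints linearly. Definition used: TGI = concentration required for complete inhibition of growth.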

As for `Cc1cccc2c(N)c3cccc(C(=O)NCC[N+](C)(C)[O-])c3nc12`, the TGI in the test on HOP-92 NSCLC was 92.8 µM; in the test on MOLT-4 leukemia, more than 100 µM; in the test on M14 melanoma, 55 µM; with CAKI-1 renal, more than 100 µM; with HCT-15 colon, more than 100 µM; in the test with LOX IMVI melanoma, more than 100 µM. The TGI was 36.5 µM in the test on HOP-62 NSCLC, 87.4 µM in the test on EKVX NSCLC, more than 100 µM with K-562 leukemia and more than 100 µM with OVCAR-3 ovarian.
Turning to `C=C1C[C@@H]2CC[C@@]34CC5O[C@H]6C(O[C@H]7CC[C@H](CC(=O)O[C@@H]8[C@@H](C)[C@@H]9O[C@@H]%10C[C@]%11(C[C@@H]%12O[C@]%13(C[C@H](C)[C@@H]%14O[C@@H]%15CC(C(COC(C)=O)OC(C)=O)O[C@@H]%15C[C@@H]%14O%13)C[C@H](C)[C@@H]%12O%11)O[C@@H]%10C[C@@H]9O[C@H]8CC8O[C@@H](CC[C@@H]1O2)C[C@@H](C)C8(O)CO)O[C@@H]7[C@@H]6O3)[C@H]5O4` (some centres not stated), the TGI in the test on HOP-92 NSCLC, with MOLT-4 leukemia, with M14 melanoma, in the test with CAKI-1 renal, in the test with HCT-15 colon and in the test with LOX IMVI melanoma was more than 1 µM each time. Moreover, the TGI in the test with HOP-62 NSCLC, in the test with EKVX NSCLC, with K-562 leukemia and with OVCAR-3 ovarian was more than 1 µM each time.
Turning to `CCOC(=O)C(NC(=O)CC)(Nc1ccccc1F)C(F)(F)F` (configuration not stated), the TGI in the test with HOP-92 NSCLC, in the test with MOLT-4 leukemia, with M14 melanoma, with CAKI-1 renal, in the test on HCT-15 colon and in the test on LOX IMVI melanoma was more than 100 µM in each case. Besides, the TGI in the test on EKVX NSCLC, in the test with K-562 leukemia and in the test with OVCAR-3 ovarian was more than 100 µM throughout.
`CO[C@H](C)[C@](O)(C(=O)OCC1=CCN2CC[C@@H](O)[C@H]12)C(C)C`: the TGI with HOP-92 NSCLC, in the test on MOLT-4 leukemia, with M14 melanoma, in the test with CAKI-1 renal, in the test on HCT-15 colon and in the test on LOX IMVI melanoma was more than 100 µM throughout. Further, the TGI in the test on HOP-62 NSCLC, in the test with EKVX NSCLC, in the test with K-562 leukemia and in the test with OVCAR-3 ovarian was more than 100 µM in each case.
In the case of `C[N+]1(CCCCN2c3ccccc3Sc3cc(N=[N+]=[N-])ccc32)CCN(C(=O)CCNC(=O)Cc2ccc(C(=O)c3ccccc3)cc2)CC1`, the TGI was 40.5 µM with HOP-92 NSCLC; more than 76.8 µM in the test with MOLT-4 leukemia; more than 72.9 µM with M14 melanoma; 57.5 µM in the test with CAKI-1 renal; 55.9 µM in the test with HCT-15 colon; more than 78.1 µM in the test on LOX IMVI melanoma. In addition, the TGI in the test on HOP-62 NSCLC was 44.9 µM; with EKVX NSCLC it was more than 81.5 µM; in the test with K-562 leukemia, more than 57.7 µM; with OVCAR-3 ovarian, 89.2 µM.
Consider `O=C1c2c(Br)sc(Br)c2[C@H]2OC(=S)N[C@@H]12`, for which the TGI with HOP-92 NSCLC came out at 27.3 µM; with MOLT-4 leukemia, 5 µM; in the test with M14 melanoma, 4.1 µM; with CAKI-1 renal, 7.81 µM; with HCT-15 colon it was 3.76 µM; with LOX IMVI melanoma, 10.9 µM. Moreover, the TGI came out at 30.7 µM in the test with HOP-62 NSCLC, 11.4 µM with EKVX NSCLC, 6.35 µM with K-562 leukemia and 7.26 µM with OVCAR-3 ovarian.
For `O=C1C=CC(=O)c2c(O)c(N3CCN(c4ncccn4)CC3)c(Cl)c(O)c21`, the TGI with HOP-92 NSCLC is 4.72 µM; in the test on MOLT-4 leukemia, 5.5 µM; in the test on M14 melanoma, 3.45 µM; in the test with CAKI-1 renal it was 4.4 µM; with LOX IMVI melanoma, 3.55 µM; in the test with HOP-62 NSCLC it was 5.63 µM. For the same compound, the TGI in the test with EKVX NSCLC was 24.8 µM; in the test on K-562 leukemia, 5.07 µM; with OVCAR-3 ovarian, 3.16 µM.
Consider `O=c1[nH]nc(-c2ccc([N+](=O)[O-])cc2)[nH]1`, for which the TGI in the test on HOP-92 NSCLC, in the test on MOLT-4 leukemia, in the test with M14 melanoma, in the test on CAKI-1 renal, in the test on HCT-15 colon and in the test with LOX IMVI melanoma was more than 100 µM in each case. The TGI in the test with HOP-62 NSCLC, in the test on EKVX NSCLC, with K-562 leukemia and in the test on OVCAR-3 ovarian was more than 100 µM in each case.
In the case of `Cc1ccc2nc(Nc3ccccc3C)c(Nc3ccccc3C)nc2c1`, the TGI in the test with HOP-92 NSCLC is 54.1 µM; with MOLT-4 leukemia it was more than 100 µM; in the test on M14 melanoma, 81.8 µM; with CAKI-1 renal, more than 95.7 µM; with HCT-15 colon, 58.7 µM; in the test on LOX IMVI melanoma, 39.5 µM. Moreover, the TGI was more than 100 µM with HOP-62 NSCLC, more than 100 µM with EKVX NSCLC, more than 57.4 µM in the test with K-562 leukemia and 52.3 µM in the test with OVCAR-3 ovarian.
For the compound `CCOC(=O)c1c(-c2ccc(OC)cc2)c(C#N)c(=S)n(C2OC(CO)C(O)C(O)C2O)c1C` (configuration not stated), the TGI with HOP-92 NSCLC, in the test with MOLT-4 leukemia, in the test with M14 melanoma, with CAKI-1 renal, in the test on HCT-15 colon and in the test with LOX IMVI melanoma was more than 100 µM throughout. Further, the TGI in the test with HOP-62 NSCLC, with EKVX NSCLC, in the test on K-562 leukemia and in the test on OVCAR-3 ovarian was more than 100 µM throughout.
`CC(C)NC(=O)OCc1c(COC(=O)NC(C)C)n(C)c2c1ccc1cc(Cl)c(Cl)cc12`: the TGI in the test on HOP-92 NSCLC turned out to be 24.3 µM; in the test with MOLT-4 leukemia it was 27.9 µM; with M14 melanoma, 29.2 µM; with CAKI-1 renal it was 12.6 µM; in the test with HCT-15 colon, 28.7 µM; in the test with LOX IMVI melanoma, 20.9 µM. The TGI is 28 µM with HOP-62 NSCLC, 41.9 µM in the test on EKVX NSCLC, more than 100 µM in the test with K-562 leukemia and 31.1 µM in the test on OVCAR-3 ovarian.
On to `O=C1CCCC2=C1CC1=C(CCCC1=O)N2c1ccc(-c2ccccc2)cc1`, for which the TGI in the test with HOP-92 NSCLC, in the test on MOLT-4 leukemia, with M14 melanoma, in the test with CAKI-1 renal, in the test on HCT-15 colon and in the test with LOX IMVI melanoma was more than 100 µM throughout. Moreover, the TGI in the test with HOP-62 NSCLC, in the test with EKVX NSCLC, in the test with K-562 leukemia and in the test with OVCAR-3 ovarian was more than 100 µM in each case.
Take `CSc1ncnc2c1cnn2Cc1cn(COCC(O)CO)nn1` (configuration not stated): the TGI in the test on HOP-92 NSCLC, with MOLT-4 leukemia, in the test with M14 melanoma, in the test on CAKI-1 renal, with HCT-15 colon and in the test with LOX IMVI melanoma was more than 100 µM throughout. In addition, the TGI in the test with HOP-62 NSCLC, in the test on EKVX NSCLC and in the test on OVCAR-3 ovarian was more than 100 µM each time.
